Measured values from US20260098061A1, “EPHA2-BINDING PENDING PEPTIDE AND COMPOSITION COMPRISING SAME” (PeptiDream Inc., priority 2022, published 2026).
Numbered stars: 1 amine (or outer) side, 2 acyl side, 3 side chain; on linkers, the order of the positions; unused ones are H or OH. Bridge positions count the residues as written; N and C are the ends. Square brackets hold non-standard residues; d marks the D form. Side chains are listed from the residue outwards. Peptide text beside a SMILES is read from it. * marks the point of attachment. NH(1-deoxy-D-glucityl) = OC[C@@H](O)[C@@H](O)[C@H](O)[C@@H](O)CN*; Trp(1-Me,7-Cl) = Cn1cc(C[C@H](N)C(=O)O)c2cccc(Cl)c21; Ala(2-NH2-4-pyridyl) = Nc1cc(C[C@H](N)C(=O)O)ccn1; dPhe(3-CONH2) = NC(=O)c1cccc(C[C@@H](N)C(=O)O)c1; X3 = CN([C@@H](Cc1ccnc(N)c1)C(=O)[*:2])[*:1]; Piperazinyl(4-CH2COOH) = O=C(O)CN1CCN(*)CC1; Trp(1-Me) = Cn1cc(C[C@H](N)C(=O)O)c2ccccc21; NMemTyr = CN[C@@H](Cc1cccc(O)c1)C(=O)O; NMehCit = CN[C@@H](CCCCNC(N)=O)C(=O)O; NMe3Pal = CN[C@@H](Cc1cccnc1)C(=O)O; NMeF = CN[C@@H](Cc1ccccc1)C(=O)O; hCit = NC(=O)NCCCC[C@H](N)C(=O)O; Gly(cBu) = N[C@H](C(=O)O)C1CCC1; NMeE = CN[C@@H](CCC(=O)O)C(=O)O; Aad = N[C@@H](CCCC(=O)O)C(=O)O; Cit = NC(=O)NCCC[C@H](N)C(=O)O; NMeN = CN[C@@H](CC(N)=O)C(=O)O; NMeA = CN[C@@H](C)C(=O)O; CO = O=C([*:1])[*:2]

Biological target: T1, Recombinant Human EphA2 Fc Protein (Homo sapiens, UniProt P29317)
T1 construct: purchased Elabscience
Assay: SPR interaction analysis (Biacore T200), kinetics of peptides against EphA2
Format: binding
Conditions: Recombinant Human EphA2 Fc Protein captured by Human Antibody Capture kit; single-cycle kinetics; 25° C.; HBS-P+ buffer with 1% DMSO
How it was run: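 KD derived from ka and kd, fitted on baseline-subtracted sensorgrams from single-cycle kinetics of five peptide dilutions. Running buffer: HBS-P+ (pH 7.4) plus 1% DMSO, 25° C, Biacore T200. Recombinant human EphA2-Fc held on an antibody capture surface.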

Compound | Kd
CC(C)C[C@@H]1NC(=O)[C@H](CC(N)=O)NC(=O)[C@H](Cc2cccnc2)N(C)C(=O)[C@@H](Cc2cccc(C(N)=O)c2)NC(=O)CSC[C@@H](C(N)=O)NC(=O)[C@H](CC(N)=O)NC(=O)[C@H]([C@@H](C)O)NC(=O)[C@H](Cc2cn(C)c3ccccc23)NC(=O)[C@H](CCC(=O)NC[C@H](O)[C@@H](O)[C@H](O)[C@H](O)CO)NC(=O)[C@H](Cc2cn(C)c3c(Cl)cccc23)NC(=O)[C@H](CC(N)=O)N(C)C(=O)[C@H](CC(N)=O)NC1=O [PDC_EphA2-00026425, df3CON-Me3Py-N-L-N-MeN-W1Me7Cl-Qglucamine-W1Me-T-N-C-NH2] ({CH2CO}-[dPhe(3-CONH2)][NMe3Pal]NLN[NMeN][Trp(1-Me,7-Cl)]E(NH(1-deoxy-D-glucityl))[Trp(1-Me)]TNC-NH2; thioether N-12) | < 1 nM
CC(C)C[C@@H]1NC(=O)[C@H](CC(N)=O)NC(=O)[C@H](Cc2ccccc2)N(C)C(=O)[C@@H](Cc2cccc(C(N)=O)c2)NC(=O)CSC[C@@H](C(N)=O)NC(=O)[C@H](CC(N)=O)NC(=O)[C@H]([C@@H](C)O)NC(=O)[C@H](Cc2cn(C)c3ccccc23)NC(=O)[C@H](CCCNC(N)=O)NC(=O)[C@H](Cc2cn(C)c3c(Cl)cccc23)NC(=O)[C@H](CCC(=O)O)N(C)C(=O)[C@H](CC(N)=O)NC1=O [PDC_EphA2-00026426, df3CON-Me3Py-N-L-N-MeN-W1Me7Cl-Cit-W1Me-T-N-C-NH2] ({CH2CO}-[dPhe(3-CONH2)][NMeF]NLN[NMeE][Trp(1-Me,7-Cl)][Cit][Trp(1-Me)]TNC-NH2; thioether N-12) | < 1 nM
CC(C)C[C@@H]1NC(=O)[C@H](Cc2ccnc(N)c2)NC(=O)[C@H](Cc2ccccc2)NC(=O)CSC[C@@H](C(N)=O)NC(=O)[C@H](Cc2cn(C)c3ccccc23)NC(=O)[C@H](Cc2ccccc2)N(C)C(=O)[C@H](Cc2cn(C)c3ccccc23)NC(=O)[C@H](C)N(C)C1=O [PDC_EphA2-00026479, F-4Py2NH2-L-MeA-W1Me-MeF-W1Me-C-NH2] ({CH2CO}-F[Ala(2-NH2-4-pyridyl)]L[NMeA][Trp(1-Me)][NMeF][Trp(1-Me)]C-NH2; thioether N-8) | 100 to 400 nM
CC(C)C[C@@H]1NC(=O)[C@H](Cc2ccnc(N)c2)NC(=O)[C@H](Cc2ccccc2)NC(=O)CSC[C@@H](C(N)=O)NC(=O)[C@H](Cc2cn(C)c3ccccc23)NC(=O)[C@H](Cc2ccccc2)N(C)C(=O)[C@H](Cc2cn(C)c3ccccc23)NC(=O)[C@H](CCCCNC(N)=O)N(C)C1=O [PDC_EphA2-00026481, F-4Py2NH2-L-MeHcit-W1Me-MeF-W1Me-C-NH2] ({CH2CO}-F[Ala(2-NH2-4-pyridyl)]L[NMehCit][Trp(1-Me)][NMeF][Trp(1-Me)]C-NH2; thioether N-8) | 100 to 400 nM
CC(C)C[C@@H]1NC(=O)[C@H](CC(N)=O)NC(=O)[C@H](Cc2cccnc2)N(C)C(=O)[C@@H](Cc2cccc(C(N)=O)c2)NC(=O)CSC[C@@H](C(N)=O)NC(=O)[C@H](Cc2cn(C)c3ccccc23)NC(=O)[C@H](CCCCNC(N)=O)NC(=O)[C@H](Cc2cn(C)c3c(Cl)cccc23)NC(=O)[C@H](Cc2ccccc2)N(C)C(=O)[C@H](CO)NC1=O [PDC_EphA2-00026600, df3CON-Me3Py-N-L-S-MeF-W1Me7Cl-Hcit-W1Me-C-NH2] ({CH2CO}-[dPhe(3-CONH2)][NMe3Pal]NLS[NMeF][Trp(1-Me,7-Cl)][hCit][Trp(1-Me)]C-NH2; thioether N-10) | 1 to 10 nM
CC(C)C[C@@H]1NC(=O)[C@H](CC(N)=O)NC(=O)[C@H](Cc2cccnc2)N(C)C(=O)[C@@H](Cc2cccc(C(N)=O)c2)NC(=O)CSC[C@@H](C(N)=O)NC(=O)[C@H](Cc2cn(C)c3ccccc23)NC(=O)[C@H](CCCCNC(N)=O)NC(=O)[C@H](Cc2cn(C)c3c(Cl)cccc23)NC(=O)[C@H](Cc2cccnc2)N(C)C(=O)[C@H](CO)NC1=O [PDC_EphA2-00026601, df3CON-Me3Py-N-L-S-Me3Py-W1Me7Cl-Hcit-W1Me-C-NH2] ({CH2CO}-[dPhe(3-CONH2)][NMe3Pal]NLS[NMe3Pal][Trp(1-Me,7-Cl)][hCit][Trp(1-Me)]C-NH2; thioether N-10) | 1 to 10 nM
CN1C(=O)[C@H](CO)NC(=O)[C@H](C2CCC2)NC(=O)[C@H](CC(N)=O)NC(=O)[C@H](Cc2cccnc2)N(C)C(=O)[C@@H](Cc2cccc(C(N)=O)c2)NC(=O)CSC[C@@H](C(N)=O)NC(=O)[C@H](Cc2cn(C)c3ccccc23)NC(=O)[C@H](CCCCNC(N)=O)NC(=O)[C@H](Cc2cn(C)c3c(Cl)cccc23)NC(=O)[C@@H]1Cc1cccnc1 [PDC_EphA2-00026602, df3CON-Me3Py-N-Cbg-S-Me3Py-W1Me7Cl-Hcit-W1Me-C-NH2] ({CH2CO}-[dPhe(3-CONH2)][NMe3Pal]N[Gly(cBu)]S[NMe3Pal][Trp(1-Me,7-Cl)][hCit][Trp(1-Me)]C-NH2; thioether N-10) | < 1 nM
CN1C(=O)[C@H](CCC(=O)NC[C@H](O)[C@@H](O)[C@H](O)[C@H](O)CO)NC(=O)[C@H](C2CCC2)NC(=O)[C@H](CC(N)=O)NC(=O)[C@H](Cc2cccnc2)N(C)C(=O)[C@@H](Cc2cccc(C(N)=O)c2)NC(=O)CSC[C@@H](C(N)=O)NC(=O)[C@H](Cc2cn(C)c3ccccc23)NC(=O)[C@H](CCCCNC(=O)N2CCN(CC(=O)O)CC2)NC(=O)[C@H](Cc2cn(C)c3c(Cl)cccc23)NC(=O)[C@@H]1Cc1cccnc1 [PDC_EphA2-00026603, df3CON-Me3Py-N-Cbg-Qglucamine-Me3Py-W1Me7Cl-KCOpipzaa-W1Me-C-NH2] ({CH2CO}-[dPhe(3-CONH2)][NMe3Pal]N[Gly(cBu)]E(NH(1-deoxy-D-glucityl))[NMe3Pal][Trp(1-Me,7-Cl)]K([CO-Piperazinyl(4-CH2COOH)])[Trp(1-Me)]C-NH2; thioether N-10) | < 1 nM
CN1C(=O)[C@H](CCC(=O)NC[C@H](O)[C@@H](O)[C@H](O)[C@H](O)CO)NC(=O)[C@H](C2CCC2)NC(=O)[C@H](CC(N)=O)NC(=O)[C@H](Cc2cccnc2)N(C)C(=O)[C@@H](Cc2cccc(C(N)=O)c2)NC(=O)CSC[C@@H](C(N)=O)NC(=O)[C@H](Cc2cn(C)c3ccccc23)NC(=O)[C@H](CCC(=O)NC[C@H](O)[C@@H](O)[C@H](O)[C@H](O)CO)NC(=O)[C@H](Cc2cn(C)c3c(Cl)cccc23)NC(=O)[C@@H]1Cc1cccnc1 [PDC_EphA2-00026604, df3CON-Me3Py-N-Cbg-Qglucamine-Me3Py-W1Me7Cl-Qglucamine-W1Me-C-NH2] ({CH2CO}-[dPhe(3-CONH2)][NMe3Pal]N[Gly(cBu)]E(NH(1-deoxy-D-glucityl))[NMe3Pal][Trp(1-Me,7-Cl)]E(NH(1-deoxy-D-glucityl))[Trp(1-Me)]C-NH2; thioether N-10) | < 1 nM
CN1C(=O)[C@H](CCC(=O)NC[C@H](O)[C@@H](O)[C@H](O)[C@H](O)CO)NC(=O)[C@H](C2CCC2)NC(=O)[C@H](CC(N)=O)NC(=O)[C@H](Cc2ccnc(N)c2)N(C)C(=O)[C@@H](Cc2cccc(C(N)=O)c2)NC(=O)CSC[C@@H](C(N)=O)NC(=O)[C@H](Cc2cn(C)c3ccccc23)NC(=O)[C@H](CCCCNC(=O)N2CCN(CC(=O)O)CC2)NC(=O)[C@H](Cc2cn(C)c3c(Cl)cccc23)NC(=O)[C@@H]1Cc1cccnc1 [PDC_EphA2-00026605, df3CON-Me4Py2NH2-N-Cbg-Qglucamine-Me3Py-W1Me7Cl-KCOpipzaa-W1Me-C-NH2] ({CH2CO}-[dPhe(3-CONH2)][X3]N[Gly(cBu)]E(NH(1-deoxy-D-glucityl))[NMe3Pal][Trp(1-Me,7-Cl)]K([CO-Piperazinyl(4-CH2COOH)])[Trp(1-Me)]C-NH2; thioether N-10) | 1 to 10 nM
CN1C(=O)[C@H](CCCC(N)=O)NC(=O)[C@H](C2CCC2)NC(=O)[C@H](CC(N)=O)NC(=O)[C@H](Cc2cccnc2)N(C)C(=O)[C@@H](Cc2cccc(C(N)=O)c2)NC(=O)CSC[C@@H](C(N)=O)NC(=O)[C@H](Cc2cn(C)c3ccccc23)NC(=O)[C@H](CCCCNC(=O)N2CCN(CC(=O)O)CC2)NC(=O)[C@H](Cc2cn(C)c3c(Cl)cccc23)NC(=O)[C@@H]1CCC(=O)O [PDC_EphA2-00026606, df3CON-Me3Py-N-Cbg-Hgn-MeE-W1Me7Cl-KCOpipzaa-W1Me-C-NH2] ({CH2CO}-[dPhe(3-CONH2)][NMe3Pal]N[Gly(cBu)][Aad](NH2)[NMeE][Trp(1-Me,7-Cl)]K([CO-Piperazinyl(4-CH2COOH)])[Trp(1-Me)]C-NH2; thioether N-10) | < 1 nM
CN1C(=O)[C@H](CCC(=O)NC[C@H](O)[C@@H](O)[C@H](O)[C@H](O)CO)NC(=O)[C@H](C2CCC2)NC(=O)[C@H](CC(N)=O)NC(=O)[C@H](Cc2cccnc2)N(C)C(=O)[C@@H](Cc2cccc(C(N)=O)c2)NC(=O)CSC[C@@H](C(N)=O)NC(=O)[C@H](Cc2cn(C)c3ccccc23)NC(=O)[C@H](CCCCNC(N)=O)NC(=O)[C@H](Cc2cn(C)c3c(Cl)cccc23)NC(=O)[C@@H]1CCC(=O)O [PDC_EphA2-00026607, df3CON-Me3Py-N-Cbg-Qglucamine-MeE-W1Me7Cl-Hcit-W1Me-C-NH2] ({CH2CO}-[dPhe(3-CONH2)][NMe3Pal]N[Gly(cBu)]E(NH(1-deoxy-D-glucityl))[NMeE][Trp(1-Me,7-Cl)][hCit][Trp(1-Me)]C-NH2; thioether N-10) | < 1 nM
CN1C(=O)[C@H](CCCC(N)=O)NC(=O)[C@H](C2CCC2)NC(=O)[C@H](CC(N)=O)NC(=O)[C@H](Cc2cccc(O)c2)N(C)C(=O)[C@@H](Cc2cccc(C(N)=O)c2)NC(=O)CSC[C@@H](C(N)=O)NC(=O)[C@H](Cc2cn(C)c3ccccc23)NC(=O)[C@H](CCCCNC(=O)N2CCN(CC(=O)O)CC2)NC(=O)[C@H](Cc2cn(C)c3c(Cl)cccc23)NC(=O)[C@@H]1CCC(=O)O [PDC_EphA2-00026608, df3CON-MeF3H-N-Cbg-Hgn-MeE-W1Me7Cl-KCOpipzaa-W1Me-C-NH2] ({CH2CO}-[dPhe(3-CONH2)][NMemTyr]N[Gly(cBu)][Aad](NH2)[NMeE][Trp(1-Me,7-Cl)]K([CO-Piperazinyl(4-CH2COOH)])[Trp(1-Me)]C-NH2; thioether N-10) | < 1 nM
